# Reference: patent EP4729529A1, “PREPARATION OF PEPTIDE INHIBITOR OF INTERLEUKIN-23 RECEPTOR AND USE THEREOF” (Xizang Haisco Pharmaceutical Co., Ltd., priority 2023, dated 2024)
# Starred links: 1 amine or outer side, 2 acyl side, 3 side chain; linkers in the order of their positions; H or OH if unused. Positions of bridges follow the written chain, without caps; N, C: chain ends. Non-standard residues stand in square brackets, D forms with d. Residues, ends and D or L forms follow the SMILES beside them. Groups on a side chain read outwards from the residue. *: point of attachment. Phe(4-OC2H4NH2,2,3-(CH2)3) = NCCOc1ccc(C[C@H](N)C(=O)O)c2c1CCC2; Trp(7-cPr) = N[C@@H](Cc1c[nH]c2c(C3CC3)cccc12)C(=O)O; X4 = COCCOCCOCCOCCOCCOCCOCCOCCOCCOCCOCCOCCOCC(=O)*; Trp(7-Me) = Cc1cccc2c(C[C@H](N)C(=O)O)c[nH]c12; X6 = COCCOCCOCCOCCOCCOCCOCCOCCOCCOCC(=O)*; γGlu = O=C(O)[C@H](CCC(=O)[*:2])N[*:1]; 2Nal = N[C@@H](Cc1ccc2ccccc2c1)C(=O)O; X1 = O=C(C(N[*:1])C1(S[*:3])CC1)[*:2]; X3 = C(c1nc(C[*:2])nc(C[*:3])n1)[*:1]; Thp(SO2) = NC1(C(=O)O)CCS(=O)(=O)CC1; mXylylene = c1cc(C[*:1])cc(C[*:2])c1; oXylylene = c1ccc(C[*:2])c(C[*:1])c1; AEF = NCCOc1ccc(C[C@H](N)C(=O)O)cc1; 3Pal = N[C@@H](Cc1cccnc1)C(=O)O; X5 = COCCOCCOCCOCCOCCOCC(=O)*; Pen = CC(C)(S)[C@H](N)C(=O)O; Thp = NC1(C(=O)O)CCOCC1; AEEA = NCCOCCOCC(=O)O; AEA = NCCOCC(=O)O; Sar = CNCC(=O)O
# Target: T1, IL-23α/IL-12β and IL-23R (Homo sapiens, UniProt Q5VWK5)
# T1 construct: purchased ACRO ILR-H82F3 (IL-23R); ILB-H52W5 (IL-23α/IL-12β)
# T1 sequence (Q5VWK5 24-353 limits assumed): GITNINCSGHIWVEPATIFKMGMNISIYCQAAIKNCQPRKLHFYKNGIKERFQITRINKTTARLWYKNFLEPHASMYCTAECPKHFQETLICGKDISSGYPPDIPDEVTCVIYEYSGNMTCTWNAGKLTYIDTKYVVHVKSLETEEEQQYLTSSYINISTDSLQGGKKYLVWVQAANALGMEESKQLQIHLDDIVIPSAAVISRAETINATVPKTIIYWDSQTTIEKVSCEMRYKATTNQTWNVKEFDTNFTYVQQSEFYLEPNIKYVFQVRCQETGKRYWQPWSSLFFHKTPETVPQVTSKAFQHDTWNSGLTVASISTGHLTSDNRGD
# Experiment: IL-23α/IL-12β and IL-23R binding assay (TR-FRET/HTRF)
# Settings: inhibition of the binding of IL-23α/IL-12β to IL-23R, TR-FRET; both proteins 0.3 nM
# Method: 1. IL-23α/IL-12β and IL-23R binding assay
# Compounds were tested for their inhibition on the binding of IL-23α/IL-12β to IL-23R by the TR-FRET method. Solutions of proteins IL-23α/IL-12β (ACRO, Cat# ILB-H52W5) and IL-23R (ACRO, Cat# ILR-H82F3) were prepared in reaction buffer PPI (PerkinElmer, Cat# 61DB10RDF). The final concentrations of IL-23α/IL-12β and IL-23R in the reaction mixture were both 0.3 nM. Positive reference Guselkumab was 3-fold diluted from an initial concentration of 30 nM, with 10 doses. 0.1 µL of the positive reference diluted in the reaction buffer was delivered to a 384-well plate (Grenier, Cat# 784075) by the acoustic liquid delivery technique (Echo 655), and the plate was centrifuged at 1000 rpm for 1 minute. 2.5 µL of IL-23α/IL-12β solution was transferred into the 384-well reaction plate, and the plate was centrifuged at 1000 rpm for 1 minute, and incubated at 25°C for 60 minutes. 2.5 µL of IL-23R solution was transferred into the 384-well reaction plate, and the plate was centrifuged at 1000 rpm for 1 minute. 5 µL of Streptavidin-Tb cryptate and Anti 6HIS-d2 detection mixture was transferred into the 384-well reaction plate, and the plate was centrifuged at 1000 rpm for 1 minute, and incubated at 25°C for 60 minutes. Finally, the HTRF signal (Ratio 665/620 nm) was read with a BMG high-throughput drug screening multifunctional microplate reader. IC50 values were obtained by nonlinear regression curve fitting using GraphPad Prism software.
row,Compound,IC50
1,"CC(=O)N[C@H]1CSCc2cccc(c2)CSC[C@@H](C(=O)N[C@@H](Cc2ccc(OCCN)c3c2CCC3)C(=O)N[C@@H](Cc2ccc3ccccc3c2)C(=O)NC2(C(=O)N[C@@H](CCC(=O)O)C(=O)N[C@@H](CC(N)=O)C(=O)N[C@@H](Cc3cccnc3)C(=O)N(C)CC(N)=O)CCS(=O)(=O)CC2)NC(=O)[C@H](CCC(N)=O)NC(=O)[C@H](Cc2c[nH]c3c(C)cccc23)NC(=O)[C@H]([C@@H](C)O)NC(=O)[C@H](Cc2c[nH]cn2)NC1=O [Compound 30] (Ac-CHT[Trp(7-Me)]QC[Phe(4-OC2H4NH2,2,3-(CH2)3)][2Nal][Thp(SO2)]EN[3Pal][Sar]-NH2; linker 1-6 via mXylylene)",0.46 nM
2,"CC(=O)N[C@H]1CSCc2ccccc2CSC[C@@H](C(=O)N[C@@H](Cc2ccc(OCCN)c3c2CCC3)C(=O)N[C@@H](Cc2ccc3ccccc3c2)C(=O)NC2(C(=O)N[C@@H](CCC(=O)O)C(=O)N[C@@H](CC(N)=O)C(=O)N[C@@H](Cc3cccnc3)C(=O)N(C)CC(N)=O)CCS(=O)(=O)CC2)NC(=O)[C@H](CCC(N)=O)NC(=O)[C@H](Cc2c[nH]c3c(C)cccc23)NC(=O)[C@H]([C@@H](C)O)NC(=O)[C@H](Cc2c[nH]cn2)NC1=O [Compound 31] (Ac-CHT[Trp(7-Me)]QC[Phe(4-OC2H4NH2,2,3-(CH2)3)][2Nal][Thp(SO2)]EN[3Pal][Sar]-NH2; linker 1-6 via oXylylene)",0.258 nM
3,"CC(=O)N[C@H]1CSCc2nc3nc(n2)CSC[C@@H](C(=O)N[C@@H](CC(N)=O)C(=O)N[C@@H](Cc2cccnc2)C(=O)N(C)CC(N)=O)NC(=O)C2(CCS(=O)(=O)CC2)NC(=O)[C@H](Cc2ccc4ccccc4c2)NC(=O)[C@H](Cc2ccc(OCCN)c4c2CCC4)NC(=O)[C@H](CSC3)NC(=O)[C@H](CCC(N)=O)NC(=O)[C@H](Cc2c[nH]c3c(C)cccc23)NC(=O)[C@H]([C@@H](C)O)NC(=O)[C@H](Cc2c[nH]cn2)NC1=O [Compound 33] (Ac-CHT[Trp(7-Me)]QC[Phe(4-OC2H4NH2,2,3-(CH2)3)][2Nal][Thp(SO2)]CN[3Pal][Sar]-NH2; linker 1-6-10 via X3)",0.395 nM
4,"COCCOCCOCCOCCOCCOCC(=O)N[C@@H]1C(=O)N[C@@H](Cc2c[nH]cn2)C(=O)N[C@@H]([C@@H](C)O)C(=O)N[C@@H](Cc2c[nH]c3c(C4CC4)cccc23)C(=O)N[C@@H](CCC(N)=O)C(=O)N[C@H](C(=O)N[C@@H](Cc2ccc(OCCN)c3c2CCC3)C(=O)N[C@@H](Cc2ccc3ccccc3c2)C(=O)NC2(C(=O)N[C@@H](CCC(=O)O)C(=O)N[C@@H](CC(N)=O)C(=O)N[C@@H](Cc3cccnc3)C(=O)N(C)CC(N)=O)CCS(=O)(=O)CC2)C(C)(C)SSC1(C)C [Compound 35] (X5-[Pen]HT[Trp(7-cPr)]Q[Pen][Phe(4-OC2H4NH2,2,3-(CH2)3)][2Nal][Thp(SO2)]EN[3Pal][Sar]-NH2; disulfide 1-6)",0.063 nM
5,"CC(=O)N[C@@H](CCC(=O)NCCOCCOCC(=O)NCCOCCOCC(=O)N[C@@H]1C(=O)N[C@@H](Cc2c[nH]cn2)C(=O)N[C@@H]([C@@H](C)O)C(=O)N[C@@H](Cc2c[nH]c3c(C4CC4)cccc23)C(=O)N[C@@H](CCC(N)=O)C(=O)N[C@H](C(=O)N[C@@H](Cc2ccc(OCCN)c3c2CCC3)C(=O)N[C@@H](Cc2ccc3ccccc3c2)C(=O)NC2(C(=O)N[C@@H](CCC(=O)O)C(=O)N[C@@H](CC(N)=O)C(=O)N[C@@H](Cc3cccnc3)C(=O)N(C)CC(N)=O)CCS(=O)(=O)CC2)C(C)(C)SSC1(C)C)C(=O)O [Compound 36] (Ac-[γGlu][AEEA][AEEA][Pen]HT[Trp(7-cPr)]Q[Pen][Phe(4-OC2H4NH2,2,3-(CH2)3)][2Nal][Thp(SO2)]EN[3Pal][Sar]-NH2; disulfide 4-9)",0.042 nM
6,CC(=O)NCCCC[C@@H]1NC(=O)[C@H](Cc2c[nH]c3c(C)cccc23)NC(=O)[C@H]([C@@H](C)O)NC(=O)[C@H](CC(N)=O)NC(=O)C(NC(C)=O)C2(CC2)SSC(C)(C)[C@@H](C(=O)N[C@@H](Cc2ccc(OCCN)cc2)C(=O)N[C@@H](Cc2ccc3ccccc3c2)C(=O)NC2(C(=O)N[C@@H](CCC(=O)O)C(=O)N[C@@H](CC(N)=O)C(=O)N[C@@H](Cc3cccnc3)C(=O)N(C)CC(N)=O)CCOCC2)NC1=O (stereo partly shown) [Compound 37] (Ac-[X1]NT[Trp(7-Me)]K(Ac)[Pen][AEF][2Nal][Thp]EN[3Pal][Sar]-NH2; disulfide 1-6 (inferred)),0.05 nM
7,CC(=O)NCCCC[C@@H]1NC(=O)[C@H](Cc2c[nH]c3c(C)cccc23)NC(=O)[C@H]([C@@H](C)O)NC(=O)[C@H](Cc2c[nH]cn2)NC(=O)[C@H]2NC(=O)COCCNC(=O)CC[C@@H](C(=O)N[C@@H](CC(N)=O)C(=O)N[C@@H](Cc3cccnc3)C(=O)N(C)CC(N)=O)NC(=O)C3(CCOCC3)NC(=O)[C@H](Cc3ccc4ccccc4c3)NC(=O)[C@H](Cc3ccc(OCCN)cc3)NC(=O)[C@@H](NC1=O)C(C)(C)SSC2(C)C [Compound 38] ([AEA][Pen]HT[Trp(7-Me)]K(Ac)[Pen][AEF][2Nal][Thp]EN[3Pal][Sar]-NH2; disulfide 2-7 (inferred); lactam N-11 (inferred)),0.212 nM
8,"COCCOCCOCCOCCOCCOCCOCCOCCOCCOCC(=O)N[C@@H]1C(=O)N[C@@H](Cc2c[nH]cn2)C(=O)N[C@@H]([C@@H](C)O)C(=O)N[C@@H](Cc2c[nH]c3c(C4CC4)cccc23)C(=O)N[C@@H](CCC(N)=O)C(=O)N[C@H](C(=O)N[C@@H](Cc2ccc(OCCN)c3c2CCC3)C(=O)N[C@@H](Cc2ccc3ccccc3c2)C(=O)NC2(C(=O)N[C@@H](CCC(=O)O)C(=O)N[C@@H](CC(N)=O)C(=O)N[C@@H](Cc3cccnc3)C(=O)N(C)CC(N)=O)CCS(=O)(=O)CC2)C(C)(C)SSC1(C)C [Compound 39] (X6-[Pen]HT[Trp(7-cPr)]Q[Pen][Phe(4-OC2H4NH2,2,3-(CH2)3)][2Nal][Thp(SO2)]EN[3Pal][Sar]-NH2; disulfide 1-6)",0.057 nM
9,"COCCOCCOCCOCCOCCOCCOCCOCCOCCOCCOCCOCCOCC(=O)N[C@@H]1C(=O)N[C@@H](Cc2c[nH]cn2)C(=O)N[C@@H]([C@@H](C)O)C(=O)N[C@@H](Cc2c[nH]c3c(C4CC4)cccc23)C(=O)N[C@@H](CCC(N)=O)C(=O)N[C@H](C(=O)N[C@@H](Cc2ccc(OCCN)c3c2CCC3)C(=O)N[C@@H](Cc2ccc3ccccc3c2)C(=O)NC2(C(=O)N[C@@H](CCC(=O)O)C(=O)N[C@@H](CC(N)=O)C(=O)N[C@@H](Cc3cccnc3)C(=O)N(C)CC(N)=O)CCS(=O)(=O)CC2)C(C)(C)SSC1(C)C [Compound 46] (X4-[Pen]HT[Trp(7-cPr)]Q[Pen][Phe(4-OC2H4NH2,2,3-(CH2)3)][2Nal][Thp(SO2)]EN[3Pal][Sar]-NH2; disulfide 1-6)",0.095 nM
10,"CC(=O)N[C@@H](CCC(=O)NCCOCCOCC(=O)NCCOCCOCC(=O)NCCCC[C@@H]1NC(=O)[C@H](Cc2c[nH]c3c(C4CC4)cccc23)NC(=O)[C@H]([C@@H](C)O)NC(=O)[C@H](Cc2c[nH]cn2)NC(=O)[C@@H](NC(C)=O)C(C)(C)SSC(C)(C)[C@@H](C(=O)N[C@@H](Cc2ccc(OCCN)c3c2CCC3)C(=O)N[C@@H](Cc2ccc3ccccc3c2)C(=O)NC2(C(=O)N[C@@H](CCC(=O)O)C(=O)N[C@@H](CC(N)=O)C(=O)N[C@@H](Cc3cccnc3)C(=O)N(C)CC(N)=O)CCS(=O)(=O)CC2)NC1=O)C(=O)O [Compound 47] (Ac-[Pen]HT[Trp(7-cPr)]K([AEEA-AEEA-γGlu-Ac])[Pen][Phe(4-OC2H4NH2,2,3-(CH2)3)][2Nal][Thp(SO2)]EN[3Pal][Sar]-NH2; disulfide 1-6)",0.093 nM
